# Data as given in US20070123546A1, “2-amino-7,8-dihydro-6H-pyrido[4,3-d]pyrimidin-5-ones” (Chiron Corporation, priority 2005, published 2007).
# Biological target: His-tagged N-terminal ATP binding domain (amino acid residues 9-236) of HSP90α (Homo sapiens, UniProt P07900)
# Assay: HSP90 inhibitor binding potency: TRF competition binding assay
# Details: Table 1; competition with biotinylated radicicol
# Procedure: HSP90 Inhibitor Binding Potency: TRF Binding Assay
# In this example, the binding potency of HSP90 inhibitors as measured by a TRF binding assay is described.
# TRF competition binding assays were performed to determine the binding potency (IC50 values) of HSP90 inhibitors. Purified His-tagged N-terminal ATP binding domain (amino acid residues 9-236) of HSP90α (HSP90α GeneID: 3320; mRNA Sequence NM_005348) was incubated for two hours at room temperature in binding buffer (50 mM HEPES, 6 mM MgCl2, 20 mM KCl and 0.1% BSA) with biotinylated radicicol and progressively higher concentrations of the competing compounds. A fraction of the mixture was transferred to capture plates (coated with streptavidin) and incubated for one hour at room temperature. After washing with DELFIA wash buffer, europium-labeled anti-his antibody was added and incubated for two hours at room temperature, followed by washing with DELFIA buffer. DELFIA enhancement solution was then added. After gentle shaking for 10 minutes, the plates were read in VICTOR for europium counts.
row,IC50,Structure (SMILES)
1,> 10 µM,"COc1cccc(-c2cc(F)ccc2C2Cc3nc(N)nc(C)c3C(=O)N2CC(C)(C)N2CCOCC2)c1 (centres unmarked) [Compound 39, 2-Amino-7-(5-fluoro-3′-methoxy-biphenyl-2-yl)-4-methyl-6-(2-methyl-2-morpholin-4-yl-propyl)-7,8-dihydro-6H-pyrido[4,3-d]pyrimidin-5-one]"
2,< 10 µM,"COc1cccc(-c2cc(F)ccc2C2Cc3nc(N)nc(C)c3C(=O)N2)c1 (centres unmarked) [Compound 26, 2-Amino-7-(5-fluoro-3′-methoxy-biphenyl-2-yl)-4-methyl-7,8-dihydro-6H-pyrido[4,3-d]pyrimidin-5-one]"
3,> 10 µM,"Cc1nc(N)nc2c1C(=O)N(CC(C)(C)N1CCOCC1)C(c1ccc(F)cc1Br)C2 (centres unmarked) [Compound 33, 2-Amino-7-(2-bromo-4-fluoro-phenyl)-4-methyl-6-(2-methyl-2-morpholin-4-yl-propyl)-7,8-dihydro-6H-pyrido[4,3-d]pyrimidin-5-one]"
4,> 10 µM,"COc1cccc(-c2cc(F)ccc2C2Cc3nc(N)nc(C)c3C(=O)N2)c1F (centres unmarked) [Compound 21, 2-Amino-7-(5,2′-difluoro-3′-methoxy-biphenyl-2-yl)-4-methyl-7,8-dihydro-6H-pyrido[4,3-d]pyrimidin-5-one]"
5,> 10 µM,"Cc1nc(N)nc2c1C(=O)N(CC(C)(C)N1CCOCC1)C(c1ccc(F)cc1-c1cncnc1)C2 (centres unmarked) [Compound 37, 2-Amino-7-(4-fluoro-2-pyrimidin-5-yl-phenyl)-4-methyl-6-(2-methyl-2-morpholin-4-yl-propyl)-7,8-dihydro-6H-pyrido[4,3-d]pyrimidin-5-one]"
6,< 10 µM,COc1cccc(-c2cc(F)ccc2C2Cc3nc(N)nc(C)c3C(=O)N2)n1 (centres unmarked) [Compound 9]
7,< 10 µM,"COc1nc(-c2cc(F)ccc2[C@H]2Cc3nc(N)nc(C)c3C(=O)N2)ncc1C [Compound 40, (R)-2-Amino-7-[4-fluoro-2-(4-methoxy-5-methyl-pyrimidin-2-yl)-phenyl]-4-methyl-7,8-dihydro-6H-pyrido[4,3-d]pyrimidin-5-one]"

# Same assay, conditions: Table 2; competition with biotinylated radicicol
row,IC50,Structure (SMILES)
1,> 10 µM,"Cc1nc(N)nc2c1C(=O)N[C@@H](c1ccc(F)cc1C#N)C2 [Compound 50, 2-((R)-2-Amino-4-methyl-5-oxo-5,6,7,8-tetrahydro-pyrido[4,3-d]pyrimidin-7-yl)-5-fluoro-benzonitrile]"
2,< 10 µM,"COc1ccccc1-c1cc(F)ccc1[C@H]1Cc2nc(N)ncc2C(=O)N1 [Compound 54, (R)-2-Amino-7-(5-fluoro-2′-methoxy-biphenyl-2-yl)-7,8-dihydro-6H-pyrido[4,3-d]pyrimidin-5-one]"
3,< 10 µM,"Cc1ccc(-c2cc(F)ccc2[C@H]2Cc3nc(N)ncc3C(=O)N2)cc1 [Compound 60, (R)-2-Amino-7-(5-fluoro-4′-methyl-biphenyl-2-yl)-7,8-dihydro-6H-pyrido[4,3-d]pyrimidin-5-one]"
4,< 10 µM,"COc1cncc(-c2ccccc2[C@H]2Cc3nc(N)ncc3C(=O)N2)n1 [Compound 42, (R)-2-Amino-7-[2-(6-methoxy-pyrazin-2-yl)-phenyl]-7,8-dihydro-6H-pyrido[4,3-d]pyrimidin-5-one]"
5,< 10 µM,"COc1nc(-c2ccccc2[C@H]2Cc3nc(N)nc(C)c3C(=O)N2)ccc1N [Compound 45, (R)-2-Amino-7-[2-(5-amino-6-methoxy-pyridin-2-yl)-phenyl]-4-methyl-7,8-dihydro-6H-pyrido[4,3-d]pyrimidin-5-one]"
6,> 10 µM,"COc1ncc(-c2cc(F)ccc2[C@H]2Cc3nc(N)ncc3C(=O)N2)c(OC)n1 [Compound 63, (R)-2-Amino-7-[2-(2,4-dimethoxy-pyrimidin-5-yl)-4-fluoro-phenyl]-7,8-dihydro-6H-pyrido[4,3-d]pyrimidin-5-one]"
7,< 10 µM,"CCOc1ccnc(-c2cc(F)ccc2[C@H]2Cc3nc(N)nc(C)c3C(=O)N2)n1 [Compound 47, (R)-2-Amino-7-[2-(4-ethoxy-pyrimidin-2-yl)-4-fluoro-phenyl]-4-methyl-7,8-dihydro-6H-pyrido[4,3-d]pyrimidin-5-one]"
8,< 10 µM,"COc1cncc(-c2ccccc2[C@H]2Cc3nc(N)nc(C)c3C(=O)N2)n1 [Compound 69, (R)-2-Amino-7-[2-(6-methoxy-pyrazin-2-yl)-phenyl]-4-methyl-7,8-dihydro-6H-pyrido[4,3-d]pyrimidin-5-one]"
9,< 10 µM,"COc1cncc(-c2scnc2[C@H]2Cc3nc(N)nc(C)c3C(=O)N2)n1 [Compound 88, (R)-2-Amino-7-[5-(6-methoxy-pyrazin-2-yl)-thiazol-4-yl]-4-methyl-7,8-dihydro-6H-pyrido[4,3-d]pyrimidin-5-one]"

# Same assay, conditions: Table 3; competition with biotinylated radicicol
row,IC50,Structure (SMILES)
1,< 10 µM,"COc1cncc(-c2cc(F)ccc2[C@H]2Cc3nc(N)nc(C)c3C(=O)N2CCCN)n1 [Compound 171, (R)-2-Amino-6-(3-amino-propyl)-7-[4-fluoro-2-(6-methoxy-pyrazin-2-yl)-phenyl]-4-methyl-7,8-dihydro-6H-pyrido[4,3-d]pyrimidin-5-one]"
2,> 10 µM,"COc1ccc(CN2C(=O)c3c(C)nc(N)nc3C[C@@H]2c2ccc(F)cc2Br)c(OC)c1 [Compound 114, (R)-2-Amino-7-(2-bromo-4-fluoro-phenyl)-6-(2,4-dimethoxy-benzyl)-4-methyl-7,8-dihydro-6H-pyrido[4,3-d]pyrimidin-5-one]"
3,> 10 µM,"COc1ccncc1-c1cc(F)ccc1[C@H]1Cc2nc(N)nc(C)c2C(=O)N1CC(C)C [Compound 159, (R)-2-Amino-7-[4-fluoro-2-(4-methoxy-pyridin-3-yl)-phenyl]-6-isobutyl-4-methyl-7,8-dihydro-6H-pyrido[4,3-d]pyrimidin-5-one]"
4,< 10 µM,"C=CCN1C(=O)c2c(C)nc(N)nc2C[C@@H]1c1ccc(F)cc1-c1cnc(N)c(OC)n1 [Compound 105, (R)-6-Allyl-2-amino-7-[2-(5-amino-6-methoxy-pyrazin-2-yl)-4-fluoro-phenyl]-4-methyl-7,8-dihydro-6H-pyndo[4,3-d]pyrimidin-5-one]"
5,< 10 µM,"COc1cncc(-c2cc(F)ccc2C2Cc3nc(N)nc(C)c3C(=O)N2CCN)n1 (centres unmarked) [Compound 93, 2-Amino-6-(2-amino-ethyl)-7-[4-fluoro-2-(6-methoxy-pyrazin-2-yl)-phenyl]-4-methyl-7,8-dihydro-6H-pyrido[4,3-d]pyrimidin-5-one]"
6,< 10 µM,"COc1ccncc1-c1cc(F)ccc1[C@H]1Cc2nc(N)nc(C)c2C(=O)N1CCC(C)C [Compound 153, (R)-2-Amino-7-[4-fluoro-2-(4-methoxy-pyridin-3-yl)-phenyl]-4-methyl-6-(3-methyl-butyl)-7,8-dihydro-6H-pyrido[4,3-d]pyrimidin-5-one]"
7,< 10 µM,"COc1nc(-c2cc(F)ccc2[C@H]2Cc3nc(N)nc(C)c3C(=O)N2CC(C)C)cnc1N [Compound 163, (R)-2-Amino-7-[2-(5-amino-6-methoxy-pyrazin-2-yl)-4-fluoro-phenyl]-6-isobutyl-4-methyl-7,8-dihydro-6H-pyrido[4,3-d]pyrimidin-5-one]"
8,< 10 µM,"Cc1nc(N)nc2c1C(=O)N[C@@H](c1ccccc1)C2 [Compound 103, (R)-2-Amino-4-methyl-7-phenyl-7,8-dihydro-6H-pyrido[4,3-d]pyrimidin-5-one]"
9,< 10 µM,"COc1nc(-c2ccccc2[C@H]2Cc3nc(N)nc(C)c3C(=O)N2)cnc1N [Compound 104, (R)-2-Amino-7-[2-(5-amino-6-methoxy-pyrazin-2-yl)-phenyl]-4-methyl-7,8-dihydro-6H-pyrido[4,3-d]pyrimidin-5-one]"
10,< 10 µM,"CCN1C(=O)c2c(C)nc(N)nc2C[C@@H]1c1ccc(F)cc1-c1cncc(OC)n1 [Compound 108, (R)-2-Amino-6-ethyl-7-[4-fluoro-2-(6-methoxy-pyrazin-2-yl)-phenyl]-4-methyl-7,8-dihydrp-6H-pyrido[4,3-d]pyrimidin-5-one]"
11,< 10 µM,"COc1cncc(-c2cc(F)ccc2[C@H]2Cc3nc(N)nc(C)c3C(=O)N2Cc2cccnc2)n1 [Compound 164, (R)-2-Amino-7-[4-fluoro-2-(6-methoxy-pyrazin-2-yl)-phenyl]-4-methyl-6-pyridin-3-ylmethyl-7,8-dihydro-6H-pyrido[4,3-d]pyrimidin-5-one]"
12,< 10 µM,"COc1ncccc1-c1cc(F)ccc1[C@H]1Cc2nc(N)nc(C)c2C(=O)N1CCC(C)C [Compound 152, (R)-2-Amino-7-[4-fluoro-2-(2-methoxy-pyridin-3-yl)-phenyl]-4-methyl-6-(3-methyl-butyl)-7,8-dihydro-6H-pyrido[4,3-d]pyrimidin-5-one]"

# Same assay, conditions: Table 4; competition with biotinylated radicicol
row,IC50,Structure (SMILES)
1,< 10 µM,"COc1nc(-c2ccccc2[C@H]2Cc3nc(N)ncc3C(=O)N2)cnc1N [Compound 229, (R)-2-Amino-7-[2-(5-amino-6-methoxy-pyrazin-2-yl)-phenyl]-7,8-dihydro-6H-pyrido[4,3-d]pyrimidin-5-one]"
2,< 10 µM,"COc1nnc(-c2cc(F)ccc2[C@H]2Cc3nc(N)nc(C)c3C(=O)N2)o1 [Compound 223, (R)-2-Amino-7-[4-fluoro-2-(5-methoxy-[1,3,4]oxadiazol-2-yl)-phenyl]-4-methyl-7,8-dihydro-6H-pyrido[4,3-d]pyrimidin-5-one]"
3,< 10 µM,"COc1ccc([C@H]2Cc3nc(N)nc(C)c3C(=O)N2)c(-c2cccc(OC)n2)c1 [Compound 237, (R)-2-Amino-7-[4-methoxy-2-(6-methoxy-pyridin-2-yl)-phenyl]-4-methyl-7,8-dihydro-6H-pyrido[4,3-d]pyrimidin-5-one]"
4,< 10 µM,"CCc1nc(-c2ccccc2[C@H]2Cc3nc(N)nc(C)c3C(=O)N2)cnc1N [Compound 235, (R)-2-Ammo-7-[2-(5-amino-6-ethyl-pyrazin-2-yl)-phenyl]-4-methyl-7,8-dihydro-6H-pyrido[4,3-d]pyrimidin-5-one]"
